According to PubChem BioAssay AID2060362 (Molecular Pharmacology Branch, DTP, NCI, 2025):
Where “and” joins values, the source holds several entries; their conditions need not be identical. Equal entries are not always repeated. One block for each compound: values may come before it.

Tested on: 128128-338-R-J1-PDC spheroids, viability % test/control
Assay: Anticancer human tumor 128128-338-R-J1-PDC patient-derived melanoma cell line growth inhibition [TAK]
Conditions: spheroids with HUVEC and MSC; for viability, T/C: stronger effect = lower value
Source text: Combinatorial screen of targeted agents with TAK-243 and ipatasertib in multi-cell type tumor spheroids
A high-throughput screen of multi-cell type tumor spheroids was designed to identify active combinations of targeted small molecules and TAK-243 or ipatasertib. Complex spheroids include a stromal component modeled by human endothelial cells (HUVEC) and fibroblasts modeled by human mesenchymal stem cells (MSCs). The concentration ranges selected for each drug and investigational agent were based upon clinically achievable concentrations if the clinical Cmax of the agent was known.
Compounds. The drugs and investigational agents: TAK-243 (785004), ipatasertib (767898), everolimus (733504), selumetinib (741078), bortezomib (756655), trametinib (758246), ixazomib (758254), vemurafenib (761431), dabrafenib (764134), sapanisertib (764658), alpelisib (765974), and copanlisib (816437), were obtained from the National Cancer Institute (NCI) Developmental Therapeutics Program Chemical Repository. The FDA-approved anticancer drug set is available from the NCI Developmental Therapeutics Program. […] The stock solutions were prepared in dimethyl sulfoxide (DMSO, Sigma-Aldrich, St. Louis, MO, cat. D2650) at 800-fold the tested concentration and stored at -70 degrees C prior to their use. All drugs and investigational agents were tested over a range starting from a high concentration at or near the clinical Cmax and decreasing in half-log increments. If the clinical Cmax for an agent had not been determined, the highest concentration tested was 10 microM.
NCI60 Cell Culture. NCI60 cell lines were obtained from the NCI Developmental Therapeutics Program Tumor Repository. For each lot of cells, the Repository performed Applied Biosystems AmpFLSTR Identifiler testing with PCR amplification to confirm consistency with the published Identifier STR profile for each cell line. Cells were kept in continuous culture for no more than 20 passages. The optimal seeding densities for each of the cell lines at each time point assessed were determined prior to performing the concentration response studies. Briefly, the NCI60 human tumor lines were grown as monolayers in RPMI 1640 medium supplemented with 10% FBS and 2 mmol/L L-glutamine.
An additional 2 lines were from the NCI60 cell line panel including melanomas, MALME-3M and SK-MEL-2. Pooled donor human umbilical vein endothelial cells (HUVEC, Lonza, cat. CC-2519) and human mesenchymal stem cells (hMSC, Lonza, cat. PT-2501) were purchased from Lonza (Walkersville, MD).
PDMR cell lines were grown in complete medium (DC medium): Dulbecco's modified Eagle's medium (DMEM)/F12 supplemented with 5% fetal bovine serum (FBS), 2 mM L-glutamine, 100 U/mL penicillin and 100 µg/ml streptomycin, 0.4 µg/ml hydrocortisone, 10 ng/ml epidermal growth factor (EGF) recombinant human protein, 24 µg/mL adenine, and 0.1 mg/mL primocin. During culture from frozen stock vials, PDMR cells were cultured in the same medium containing 10 µM Y-27632 (see Table 3). The PDCs were cultured in complete DMEM/F12 media without 10 microM Y-27632 dihydrochloride for at least two passages prior to the screen. The pooled donor HUVEC and hMSC were cultured in endothelial cell growth medium 2 (PromoCell, Heidelberg, Germany, cat. C-22011) and mesenchymal stem cell growth medium 2 (PromoCell, cat. C-28009), respectively. For all experiments, HUVEC and hMSC were used at passages </=5.
For the pre-screen, cell seeding densities were determined from a titration spanning the range from 5,000 to 313 cells per well. The mct-spheroids including 60% malignant cells, 25% HUVEC and 15% MSC dispensed as a mixture into U-bottom Ultra-Low Attachment 384-well plates (Corning, NY)
High-throughput Drug Combination Screening.
Prior to their inoculation into 384-well plates, malignant cells, HUVEC, and hMSC were removed from T flasks using TrypLE express (Thermo Fisher Scientific, cat. 12605036) and harvested by centrifugation for 5 min at 233 x g. […]
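Note: spheroids exposed to compounds for 7 days.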
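Throughout, for viability, T/C: 100% = DMSO vehicle wells.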

SMILES: COc1c(OCCCN2CCOCC2)ccc2c3n(c(=NC(=O)c4cnc(N)nc4)nc12)CCN3 + CC(C)NCC(C(=O)N1CCN(c2ncnc3c2C(C)CC3O)CC1)c1ccc(Cl)cc1
IC50 (curve of first compound, second compound 0.3 µM): 160 nM | IC50 (curve of first compound, second compound 0.949 µM): 154 nM | IC50 (curve of first compound, second compound 3 µM): 92.5 nM | IC50 (curve of first compound, second compound 9.49 µM): 47.6 nM | IC50 (curve of first compound, second compound 30 µM): < 3.16 nM | viability, T/C (second compound 0.3 µM, first compound 0.00316 µM): 99.3% | viability, T/C (second compound 0.3 µM, first compound 0.01 µM): 103% | viability, T/C (second compound 0.3 µM, first compound 0.0316 µM): 85.7% | viability, T/C (second compound 0.3 µM, first compound 0.1 µM): 71.9% | viability, T/C (second compound 0.3 µM, first compound 0.316 µM): 19.8% | viability, T/C (second compound 0.3 µM, first compound 1 µM): 10.2% | viability, T/C (second compound 0.949 µM, first compound 0.00316 µM): 93.4% | viability, T/C (second compound 0.949 µM, first compound 0.01 µM): 107% | viability, T/C (second compound 0.949 µM, first compound 0.0316 µM): 90.3% | viability, T/C (second compound 0.949 µM, first compound 0.1 µM): 68.8% | viability, T/C (second compound 0.949 µM, first compound 0.316 µM): 19.5% | viability, T/C (second compound 0.949 µM, first compound 1 µM): 6.65% | viability, T/C (second compound 3 µM, first compound 0.00316 µM): 90.8% | viability, T/C (second compound 3 µM, first compound 0.01 µM): 88.3% | viability, T/C (second compound 3 µM, first compound 0.0316 µM): 77.7% | viability, T/C (second compound 3 µM, first compound 0.1 µM): 47.3% | viability, T/C (second compound 3 µM, first compound 0.316 µM): 19.3% | viability, T/C (second compound 3 µM, first compound 1 µM): 6.49% | viability, T/C (second compound 9.49 µM, first compound 0.00316 µM): 62% | viability, T/C (second compound 9.49 µM, first compound 0.01 µM): 74.2% | viability, T/C (second compound 9.49 µM, first compound 0.0316 µM): 57.5% | viability, T/C (second compound 9.49 µM, first compound 0.1 µM): 33.3% | viability, T/C (second compound 9.49 µM, first compound 0.316 µM): 11.9% | viability, T/C (second compound 9.49 µM, first compound 1 µM): 8.21% | viability, T/C (second compound 30 µM, first compound 0.00316 µM): 19.5% | viability, T/C (second compound 30 µM, first compound 0.01 µM): 19.5% | viability, T/C (second compound 30 µM, first compound 0.0316 µM): 13.6% | viability, T/C (second compound 30 µM, first compound 0.1 µM): 8.31% | viability, T/C (second compound 30 µM, first compound 0.316 µM): 1.28% | viability, T/C (second compound 30 µM, first compound 1 µM): 0.56%

SMILES: CC(C)CC(NC(=O)CNC(=O)c1cc(Cl)ccc1Cl)B1OC(=O)CC(CC(=O)O)(C(=O)O)O1 (configuration not stated)
viability, T/C (compound 0.000316 µM): 102% and 104% | viability, T/C (compound 0.001 µM): 95.7% and 102% | viability, T/C (compound 0.00316 µM): 102% and 99% | viability, T/C (compound 0.01 µM): 39.4% and 38.7% | viability, T/C (compound 0.0316 µM): 3.88% and 2.92% | viability, T/C (compound 0.1 µM): 0.22% and 0.2% | IC50 (curve of compound): 8.17 nM and 8.06 nM

SMILES: Cc1nc(NC(=O)N2CCCC2C(N)=O)sc1-c1ccnc(C(C)(C)C(F)(F)F)c1 (configuration not stated)
viability, T/C (compound 0.0316 µM): 96.8% and 97.9% | viability, T/C (compound 0.1 µM): 98% and 97.4% | viability, T/C (compound 0.316 µM): 96% and 95.9% | viability, T/C (compound 1 µM): 96.9% and 92.3% | viability, T/C (compound 3.16 µM): 90.8% and 88.5% | viability, T/C (compound 10 µM): 81.5% and 71.4% | IC50 (curve of compound): > 10000 nM

SMILES: CC(C)NCC(C(=O)N1CCN(c2ncnc3c2C(C)CC3O)CC1)c1ccc(Cl)cc1 (configuration not stated)
viability, T/C (compound 0.3 µM): 102% [middle of 10 runs] | viability, T/C (compound 0.949 µM): 93% [middle of 10 runs] | viability, T/C (compound 3 µM): 89.2% [middle of 10 runs] | viability, T/C (compound 9.49 µM): 69.5% [middle of 10 runs] | viability, T/C (compound 30 µM): 22.7% [middle of 10 runs]

SMILES: CC(C)(C)c1nc(-c2cccc(NS(=O)(=O)c3c(F)cccc3F)c2F)c(-c2ccnc(N)n2)s1
viability, T/C (compound 0.0316 µM): 61.1% and 60.1% | viability, T/C (compound 0.1 µM): 23.9% and 24% | viability, T/C (compound 0.316 µM): 4.21% and 5.44% | viability, T/C (compound 1 µM): 2.39% and 2.26% | viability, T/C (compound 3.16 µM): 2.82% and 2.69% | viability, T/C (compound 10 µM): 17.2% and 16.2% | IC50 (curve of compound): 44.7 nM and 43.6 nM

Second part, led by results:

IC50 (curve of compound): 1.88 nM and 1.73 nM
SMILES: CC(C)CC(NC(=O)C(Cc1ccccc1)NC(=O)c1cnccn1)B(O)O (configuration not stated)
viability, T/C (compound 31.6 pM): 107% and 105% | viability, T/C (compound 0.0001 µM): 108% and 96.7% | viability, T/C (compound 0.000316 µM): 99.3% and 93% | viability, T/C (compound 0.001 µM): 102% and 90.6% | viability, T/C (compound 0.00316 µM): 6.95% and 5.71% | viability, T/C (compound 0.01 µM): 0.2% and 0.52%

IC50 (curve of compound): 16.9 nM and 15.7 nM
SMILES: CC(C)n1nc(-c2ccc3oc(N)nc3c2)c2c(N)ncnc21
viability, T/C (compound 0.000316 µM): 99.1% and 106% | viability, T/C (compound 0.001 µM): 94.7% and 96.1% | viability, T/C (compound 0.00316 µM): 83.2% and 80.7% | viability, T/C (compound 0.01 µM): 67.3% and 64.7% | viability, T/C (compound 0.0316 µM): 31.2% and 30.5% | viability, T/C (compound 0.1 µM): 6.18% and 6.1%

IC50 (curve of compound): 72.1 nM and 94.6 nM
SMILES: Cn1cnc2c(F)c(Nc3ccc(Br)cc3Cl)c(C(=O)NOCCO)cc21
viability, T/C (compound 0.00949 µM): 95.7% and 94.9% | viability, T/C (compound 0.03 µM): 75.4% and 82.6% | viability, T/C (compound 0.0949 µM): 44.2% and 50.7% | viability, T/C (compound 0.3 µM): 9.03% and 14.9% | viability, T/C (compound 0.949 µM): 3.38% and 4.34% | viability, T/C (compound 3 µM): 3.13% and 2.58%
